Measured values as given in patent US11034659B2, “Pyrimidine derivative” (Daiichi Sankyo Company, Limited, priority 2016, dated 2021).
Counter-ions that a name gives are not always drawn.

System: CuFi-1 cells
Test: Secretory activity for chloride ions (MQAE fluorescence) in CuFi-1 cells
Assay type: cell-based
Details: Homo sapiens, CuFi-1, CuFi-1 cells, zinc final concentration 10 μM
Protocol: Measurement of the secretory activity for chloride ions was performed in accordance with a previous report (West and Molloy, 1996). CuFi-1 cells were plated on a 96 well plate in 3×10^4 cells/well and incubated for two nights. After removing the culture medium, 100 μL/well of N-(ethoxycarbonylmethyl)-6-methoxyquinolinium bromide (MQAE) (diluted with culture medium and the concentration adjusted to 5 mM) was added. After the addition of MQAE, the cells were incubated for one night so that the indicator was passively loaded. After the loading, the cells were washed two times with Assay buffer, and 100 μL/well of Assay buffer was added. The secretory capacity for chloride ions was measured using FlexStation 1 (fluorescence wavelength of Ex: 355 nm/Em: 460 nm). In order to measure the basic value, nothing was added for 34 seconds immediately after the start of the measurement. Then, at this point, 100 μL/well of the test compound and zinc (final concentration: 10 μM) diluted with Assay buffer, which is free of chloride ions, was added, and the measurement was continued for 86 seconds (total measurement time: 120 seconds). The secretory capacity for chloride ions was calculated by dividing the average of RFU values in 10 seconds between 110 seconds and 120 seconds after the start of the measurement with the average between 0 second and 34 seconds (the basic value). The secretory activity for chloride ions of the test compound (EC50 value) was calculated by obtaining the secretory capacity for chloride ions at each concentration of the serially diluted test compound, and determining a concentration of the test compound that provides a secretory capacity of 50% from two secretory capacities and concentrations sandwiching 50% of the maximum response of each compound.

Row | EC50 [nM] | SMILES
1 | 7.1 | Cc1nc(C(=O)O)nc(Cc2ccccc2Cl)c1Cc1ccccc1Cl [Example 88, 4,5-Bis(2-chlorobenzyl)-6-methylpyrimidine-2-carboxylic acid]
2 | 14.4 | CNc1nc(C(=O)O)nc(C)c1Sc1ccccc1C(C)C [Example 26]
3 | 15.7 | CNc1nc(C(=O)O)nc(C)c1Oc1ccc(Cl)cc1Cl [Example 17, 5-(2,4-Dichlorophenoxy)-4-methyl-6-(methylamino)pyrimidine-2-carboxylic acid]
4 | 2.2 | Cc1nc(C(=O)O)nc(OCc2ccncc2)c1Cc1ccccc1Cl [Example 94]
5 | 13 | CCCc1nc(C(=O)O)nc(OCC)c1Cc1ccc(Cl)cc1F [Example 58]
6 | 5.1 | Cc1nc(C(=O)O)nc(O[C@H]2C[C@@H](C#N)C2)c1Cc1ccccc1Cl [Example 92]
7 | 50.7 | Cc1nc(C(=O)O)nc(SC(C)C)c1Sc1ccccc1Cl [Example 83, 5-((2-Chlorophenyl)thio)-4-(isopropylthio)-6-methylpyrimidine-2-carboxylic acid hydrochloride]
8 | 9.4 | CCc1nc(C(=O)O)nc(OC)c1Cc1cccc(F)c1Cl [Example 44]
9 | 16.3 | CCc1nc(C(=O)O)nc(OC)c1Cc1cccc(Cl)c1Cl [Example 41]
10 | 30.3 | Cc1nc(C(=O)O)nc(NCCCOC(C)C)c1Cc1ccc(Cl)cc1Cl [Example 5, 5-(2,4-Dichlorobenzyl)-4-((3-isopropoxypropyl)amino)-6-methylpyrimidine-2-carboxylic acid]
11 | 16 | CCOc1nc(C(=O)O)nc(C)c1Cc1ccc(Cl)cc1F [Example 56]
12 | 9.9 | Cc1nc(C(=O)O)nc(C)c1Cc1ccc(Cl)cc1Cl [Example 104]
13 | 3.3 | Cc1nc(C(=O)O)nc(OCc2ccccn2)c1Cc1ccccc1Cl [Example 95]
14 | 2.1 | CNc1nc(-c2nnn[nH]2)nc(C)c1Cc1ccc(Cl)cc1Cl [Example 105, 5-(2,4-Dichlorobenzyl)-N,6-dimethyl-2-(1H-tetrazol-5-yl)pyrimidin-4-amine]
15 | 2.6 | COc1nc(C(=O)O)nc(C(C)C)c1Cc1ccc(C(F)(F)F)cc1Cl [Example 72]
16 | 9.4 | CCOc1nc(C(=O)O)nc(CC)c1Cc1cccc(Cl)c1Cl [Example 48, 5-(2,3-Dichlorobenzyl)-4-ethoxy-6-ethylpyrimidine-2-carboxylic acid]
17 | 52.7 | CCNc1nc(C(=O)O)nc(COC)c1Cc1ccc(Cl)cc1Cl [Example 16, 5-(2,4-Dichlorobenzyl)-4-(ethylamino)-6-(methoxymethyl)pyrimidine-2-carboxylic acid]
18 | 9.4 | CCNc1nc(C(=O)O)nc(C)c1Cc1ccc(Cl)cc1Cl [Example 1, 5-(2,4-Dichlorobenzyl)-4-(ethylamino)-6-methylpyrimidine-2-carboxylic acid hydrochloride]

Row | EC50 [nM] | SMILES
19 | 11.1 | CCc1nc(C(=O)O)nc(NC)c1Cc1ccccc1Cl [Example 11, 5-(2-Chlorobenzyl)-4-ethyl-6-(methylamino)pyrimidine-2-carboxylic acid]
20 | 5.1 | Cc1nc(C(=O)O)nc(OCc2cccc(C#N)c2)c1Cc1ccccc1Cl [Example 89, 5-(2-Chlorobenzyl)-4-((3-cyanobenzyl)oxy)-6-methylpyrimidine-2-carboxylic acid]
21 | 12 | CCOc1nc(C(=O)O)nc(CC)c1Cc1cccc(Cl)c1F [Example 60]
22 | 30.2 | CSc1nc(C(=O)O)nc(C)c1Nc1ccccc1Cl [Example 85, 5-((2-Chlorophenyl)amino)-4-methyl-6-(methylthio)pyrimidine-2-carboxylic acid hydrochloride]
23 | 18.6 | CCNc1nc(C(=O)O)nc(CC)c1Sc1ccc(Cl)cc1Cl [Example 21]
24 | 4.9 | CCOc1nc(C(=O)O)nc(CC)c1Cc1ccccc1Cl [Example 62]
25 | 15.2 | CSc1nc(C(=O)O)nc(C)c1Cc1ccccc1Cl [Example 76]
26 | 8.2 | CCOc1nc(C(=O)O)nc(CC)c1Cc1ccc(Cl)cc1F [Example 51]
27 | 2.8 | CNc1nc(C(=O)O)nc(C)c1Sc1cccc(Cl)c1Cl [Example 28]
28 | 4.6 | CCc1nc(C(=O)O)nc(SC)c1Cc1ccccc1Cl [Example 78]
29 | 6.6 | CCSc1nc(C(=O)O)nc(C)c1Cc1ccc(Cl)cc1Cl [Example 79, 5-(2,4-Dichlorobenzyl)-4-(ethylthio)-6-methylpyrimidine-2-carboxylic acid]
30 | 80.6 | COc1nc(C(=O)O)nc(C)c1Sc1ccc(Cl)cc1Cl [Example 36]
31 | 26.7 | COc1nc(C(=O)O)nc(C)c1Cc1ccc(F)cc1Cl [Example 69]
32 | 66.7 | CCc1nc(C(=O)O)nc(OC)c1Cc1ccccc1F [Example 43]
33 | 14.6 | CCNc1nc(C(=O)O)nc(C)c1Sc1ccccc1F [Example 25]
34 | 30.8 | Cc1nc(C(=O)O)nc(SCCO)c1Sc1ccc(Cl)cc1Cl [Example 82]
35 | 50.3 | Cc1nc(C(=O)O)nc(NCC(C)(C)O)c1Cc1ccc(Cl)cc1Cl [Example 6, 5-(2,4-Dichlorobenzyl)-4-((2-hydroxy-2-methylpropyl)amino)-6-methylpyrimidine-2-carboxylic acid]
36 | 10.4 | Cc1nc(C(=O)O)nc(SC(C)C)c1Cc1ccccc1Cl [Example 84]

Target: T1, GPR39 (Homo sapiens, UniProt O43194)
T1 construct: endogenous in cells; host or cells: CuFi-1 cells
T1 sequence (O43194 1-453): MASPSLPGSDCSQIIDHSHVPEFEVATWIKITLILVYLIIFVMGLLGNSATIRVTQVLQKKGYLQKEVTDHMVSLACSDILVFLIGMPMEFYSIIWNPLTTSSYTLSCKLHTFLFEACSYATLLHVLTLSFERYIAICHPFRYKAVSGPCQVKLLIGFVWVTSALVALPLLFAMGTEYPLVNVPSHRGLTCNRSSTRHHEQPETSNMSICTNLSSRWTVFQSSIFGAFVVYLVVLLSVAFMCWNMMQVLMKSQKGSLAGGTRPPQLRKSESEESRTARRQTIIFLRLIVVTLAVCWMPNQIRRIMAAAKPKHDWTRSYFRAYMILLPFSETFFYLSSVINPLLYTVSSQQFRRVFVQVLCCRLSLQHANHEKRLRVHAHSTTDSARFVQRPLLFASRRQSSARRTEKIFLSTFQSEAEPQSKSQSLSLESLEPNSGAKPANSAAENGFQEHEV
Test: Effects of GPR39 knockdown (siRNA) on chloride secretion in CuFi-1 cells
Assay type: cell-based
Details: GPR39 knockdown with siGPR39-1
From the text: FIG. 2 is a graph showing effects on the chloride secretory activity of each compound in CuFi-1 cells through siRNA treatment. The vertical axis is expressed as an increase in the rate of the average value of fluorescence values at five points between 110 and 120 seconds, relative to the average value of fluorescence values at 17 points between 1 and 34 seconds within the measurement time of 120 seconds. The graph is shown with the mean value (N=8) and the standard deviation.
In order to confirm that chloride ion secretion by the test compound observed in Test. Example 1 was induced via GPR39, GPR39 knockdown was conducted. CuFi-1 cells cultured in Pneumacult-EX (STEMCELL Technologies Inc.) were plated on a 96 well plate in 3×10^4 cells/100 μL/well. Then, human GPR39 siRNA (MISSION siRNA SASI_Hs02_00332000, SASI_Hs02_00332001, Sigma-Aldrich Co. LLC) or control siRNA (Ambion Silencer Select, Thermo Fisher Scientific Inc.) was added in 1 pmol/10 μL/well using Lipofectamine RNAiMAX (Thermo Fisher Scientific Inc.), and the cells were incubated for two nights. In order for the final concentration to be 5 mM, 10 μL/well of N-(ethoxycarbonylmethyl)-6-methoxyquinolinium bromide (MQAE) diluted with culture medium was added. After the addition of MQAE, the cells were incubated for one night so that the indicator was passively loaded. Hereafter, washing and measurement of the secretory capacity for chloride ions were conducted in the same way as Test Example 1. In addition, analysis on gene expression of GPR39 was performed using RNA extracted from wells to which the same method was carried out. Total RNA was extracted from cells using RNAiso Plus (Takara Bio Inc.), and purified using RNeasy Micro Kit (Qiagen). Then, cDNA was synthesized using High Capacity cDNA Reverse Transcription Kit (Thermo Fisher Scientific Inc.), and quantitative PCR was conducted using TaqMan Gene Expression Assays (human GPR39: Hs00230762_m1, human GAPDH: Hs02758991_g1, Thermo Fisher Scientific Inc.) and THUNDERBIRD Probe qPCR Mix (TOYOBO CO., LTD.). Through the calibration curve method, a relative expression level of GPR39 compensated with GAPDH was calculated.

Row | SMILES | chloride ion secretion versus control siRNA [%]
37 | O=c1ccn([C@@H]2O[C@H](COP(=O)(O)OP(=O)(O)OP(=O)(O)O)[C@@H](O)[C@H]2O)c(=O)[nH]1 [UTP, reference compound] | 111
38 | COc1nc(C(=O)O)nc(C)c1Cc1ccccc1Cl [Example 107, 5-(2-Chlorobenzyl)-4-methoxy-6-methylpyrimidine-2-carboxylic acid 3/2-hydrate] | 17

Same assay, conditions: GPR39 knockdown with siGPR39-2

Row | SMILES | chloride ion secretion versus control siRNA [%]
39 | O=c1ccn([C@@H]2O[C@H](COP(=O)(O)OP(=O)(O)OP(=O)(O)O)[C@@H](O)[C@H]2O)c(=O)[nH]1 [UTP, reference compound] | 89
40 | COc1nc(C(=O)O)nc(C)c1Cc1ccccc1Cl [Example 107, 5-(2-Chlorobenzyl)-4-methoxy-6-methylpyrimidine-2-carboxylic acid 3/2-hydrate] | 37
